Tests used:
Format in all cases: in vivo
[1] = test system: Echinochloa colonum (ECHCO); test: herbicidal action with/without simulated rainfall after treatment, Echinochloa colonum; settings: Example 7, carfentrazone 30 g/ha, glyphosate 1080 g/ha, 0.5% v/v Dash in Carfentrazone and mixture
Procedure: (§1) The enhancement of the rainfastness of glyphosate was determined via the herbicidal activity of the mixture comprising glyphosate and the respective rainfastness enhancing herbicidal component B as well as of the single herbicidal components in relation to simulated rainfall at different time intervals.
(§2) The evaluation of the damage caused by the method and the compositions the according to the present invention and the single herbicidal components was carried out using a scale from 0 to 100%, compared to the untreated control plots. Here, 0 means no damage and 100 means complete destruction of the plants of a respective weed or crop species.
(§3) The application was performed with a fixed spayer system with air pressurization and with a tank spray volume of two liters. The speed of the spray device over the plants was adjusted for a spray volume of 200 I/ha. The spray device was a spray barr with four nozzles from the type Teejet XR 11002VS with a space of 50 cm between each nozzle.
(§4) The application was performed at a weed stage of 6 to 8 leaves. After the application of the formulated herbicides the leaves were washed through rain of 20 mm using a fixed rain simulator system at following time interval: 15 min, 30 min, 1, 2, 3, 4 and 6 hours after treatment.

Bidens pilosa (BIDPI) = test: herbicidal action with/without simulated rainfall after treatment, Bidens pilosa; settings: Example 6, carfentrazone 30 g/ha, glyphosate 1080 g/ha, 0.5% v/v Dash in Carfentrazone and mixture
Procedure: as §1, §2, §3, §4

[2] = test system: Brachiaria decumbens (BRADE); test: herbicidal action with/without simulated rainfall after treatment, Brachiaria decumbens; settings: Example 8, carfentrazone 30 g/ha, glyphosate 1080 g/ha, 0.5% v/v Dash in Carfentrazone and mixture
Procedure: as §1, §2, §3, §4

[3] = simulated rainfall 15 min after treatment, 1 DAA
[4] = simulated rainfall 15 min after treatment, 2 DAA
[5] = simulated rainfall 15 min after treatment, 3 DAA
[6] = simulated rainfall 15 min after treatment, 7 DAA
[7] = simulated rainfall 2 hours after treatment, 1 DAA
[8] = simulated rainfall 2 hours after treatment, 2 DAA
[9] = simulated rainfall 2 hours after treatment, 3 DAA
[10] = simulated rainfall 2 hours after treatment, 7 DAA
[11] = without simulated rainfall, 1 DAA
[12] = without simulated rainfall, 2 DAA
[13] = without simulated rainfall, 3 DAA
[14] = without simulated rainfall, 7 DAA
[15] = simulated rainfall 30 min after treatment, 1 DAA
[16] = simulated rainfall 30 min after treatment, 2 DAA
[17] = simulated rainfall 30 min after treatment, 3 DAA
[18] = simulated rainfall 6 hours after treatment, 1 DAA
[19] = simulated rainfall 6 hours after treatment, 2 DAA
[20] = simulated rainfall 6 hours after treatment, 3 DAA

SMILES: Cc1nn(-c2cc(CC(Cl)C(=O)O)c(Cl)cc2F)c(=O)n1C(F)F (centres unmarked) [Carfentrazone, carfentrazone]
- herbicidal action against ECHCO [1, 3]: 9%
- herbicidal action against ECHCO [1, 4]: 33.33%
- herbicidal action against ECHCO [1, 5]: 36%
- herbicidal action against ECHCO [1, 6]: 56%
- herbicidal action against ECHCO [1, 7]: 14%
- herbicidal action against ECHCO [1, 8]: 32.22%
- herbicidal action against ECHCO [1, 9]: 37.66%
- herbicidal action against ECHCO [1, 10]: 50.33%
- herbicidal action against ECHCO [1, 11]: 14.66%
- herbicidal action against ECHCO [1, 12]: 54.66%
- herbicidal action against ECHCO [1, 13]: 76.66%
- herbicidal action against ECHCO [1, 14]: 76%
- herbicidal action against BIDPI (Bidens pilosa (BIDPI); [3]): 51%
- herbicidal action against BIDPI (Bidens pilosa (BIDPI); [4]): 54.66%
- herbicidal action against BIDPI (Bidens pilosa (BIDPI); [5]): 53.33%
- herbicidal action against BIDPI (Bidens pilosa (BIDPI); [15]): 68.66%
- herbicidal action against BIDPI (Bidens pilosa (BIDPI); [16]): 87.66%
- herbicidal action against BIDPI (Bidens pilosa (BIDPI); [17]): 94.66%
- herbicidal action against BIDPI (Bidens pilosa (BIDPI); [7]): 69.33%
- herbicidal action against BIDPI (Bidens pilosa (BIDPI); [8]): 89%
- herbicidal action against BIDPI (Bidens pilosa (BIDPI); [9]): 92.33%
- herbicidal action against BIDPI (Bidens pilosa (BIDPI); [18]): 56%
- herbicidal action against BIDPI (Bidens pilosa (BIDPI); [19]): 86.66%
- herbicidal action against BIDPI (Bidens pilosa (BIDPI); [20]): 92.33%
- herbicidal action against BIDPI (Bidens pilosa (BIDPI); [11]): 69.66%
- herbicidal action against BIDPI (Bidens pilosa (BIDPI); [12]): 94.33%
- herbicidal action against BIDPI (Bidens pilosa (BIDPI); [13]): 99%
- herbicidal action against BRADE [2, 3]: 4%
- herbicidal action against BRADE [2, 4]: 10.33%
- herbicidal action against BRADE [2, 5]: 11.66%
- herbicidal action against BRADE [2, 6]: 17.33%
- herbicidal action against BRADE [2, 15]: 10.66%
- herbicidal action against BRADE [2, 16]: 19.66%
- herbicidal action against BRADE [2, 17]: 11.66%
- herbicidal action against BRADE ([2]; simulated rainfall 30 min after treatment, 7 DAA): 18.66%
- herbicidal action against BRADE [2, 7]: 15%
- herbicidal action against BRADE [2, 8]: 14.33%
- herbicidal action against BRADE [2, 9]: 13%
- herbicidal action against BRADE [2, 10]: 16.66%
- herbicidal action against BRADE [2, 18]: 25%
- herbicidal action against BRADE [2, 19]: 29%
- herbicidal action against BRADE [2, 20]: 27.66%
- herbicidal action against BRADE ([2]; simulated rainfall 6 hours after treatment, 7 DAA): 26%
- herbicidal action against BRADE [2, 11]: 3.66%
- herbicidal action against BRADE [2, 12]: 18.33%
- herbicidal action against BRADE [2, 13]: 24.33%
- herbicidal action against BRADE [2, 14]: 40.33%

Reference: patent US20110105326A1, “Method for Enhancing the Rainfastness of Glyphosate” (BASF SE, priority 2008, published 2011)
